Experimental data reported in patent US20040171019A1, “PIN1 peptidyl-prolyl isomerase polypeptides, their crystal structures, and use thereof for drug design” (Agouron Pharmaceuticals, Inc., priority 2002, published 2004).
Each block holds one compound with its values, some of them ahead of it. Numbered stars: 1 amine (or outer) side, 2 acyl side, 3 side chain; on linkers, the order of the positions; unused ones are H or OH. Square brackets hold non-standard residues; d marks the D form. Peptide text beside a SMILES is read from it. * marks the point of attachment. pS = N[C@@H](COP(=O)(O)O)C(=O)O; pNA = O=[N+]([O-])c1ccc(N*)cc1; Suc = O=C(CCC(=O)[*:2])[*:1]

Tests used:
[1] = molecular target: T1, His-tagged construct of the K77Q/K82Q PPIase domain (Homo sapiens, UniProt Q13526, K77Q/K82Q); experiment: Isothermal titration calorimetry; assay type: binding
T1 construct: made in house; host or cells: E. coli BL21(DE3)
Procedure: The working volume of the ITC cell was 1.414 mL. Both solutions contained 25 mM MOPS pH 7.5, 0.5 mM TCEP and 2.0% DMSO (vol./vol.). The PPIase polypeptide solution was prepared by exhaustively dialyzing a stock protein solution against several changes of dialysis buffer (25 mM MOPS pH 7.5, 0.5 mM TCEP) at 4.0° C.
After dialysis the protein was centrifuged to remove any particulate matter. The protein concentration was then determined by absorbance using an extinction coefficient that had been calculated based on the tryptophan and tyrosine content of the protein. The dialysed protein was then diluted with the dialysate and 2.0% (volume to volume) DMSO was added to yield a final concentration of 200 μM protein. […] An aliquot of the stock solution was diluted in DMSO and then an appropriate volume of dialysate was added. The final DMSO concentration was 2.0% (volume to volume) and the final compound concentration was 10 μM.
Appropriate control titrations (buffer into buffer, buffer into compound, and protein into buffer) were performed to determine the heats of dilution. Prior to fitting for the binding parameters, the observed heats of binding were corrected for heat of dilution of the protein. […] The data were fit using the ORIGIN® software package (MicroCal) provided with the ITC (FIG. 6). […] The One Set of Sites model with ligand in the cell was selected.

PPIase domain of PIN1 = molecular target: T2, PPIase domain of PIN1 (Homo sapiens, UniProt Q13526); experiment: Fluorescence polarization competition assay with fluorescein-tagged Pintide; assay type: binding; details: free Pintide as inhibitor control
T2 construct: made in house; host or cells: E. coli BL21(DE3)
From the text: This assay is based on fluorescence polarization. In fluorescence polarization detection, monochromatic light passes through a polarized filter and excites molecules in the sample well. Only those molecules that are oriented properly in the polarized plane absorb light, become excited, and subsequently emit light. The emitted light is detected after passing through polarizing filters that are oriented parallel and perpendicular to the plane of excitation. Since small molecules rotate more quickly than large molecules (e.g. in the form of a bound complex), the parallel (S) and perpendicular (P) measurements are closer and the difference is lower. Fluorescence polarization is measured in mP (milliP) which is defined using the following equation: […]
For the PIN1 assay, library compounds compete with fluorescein-tagged Pintide to bind the PPIase domain of PIN1. After a short incubation, samples are assayed using fluorescence polarization. The excitation and emission of fluorescein occur at 485 nm and 530 nm, repectively. […]
Experiments were performed in either 96-well plates or 384-well black flat bottom polystyrene non-binding surface (NBS) plates (Costar). […] Excitation was measured at 485 nm and emission was measured at 530 nm. Readings were taken in a Florescence Polarization reader (Molecular Devices Analyst). […]

mutant PPIase K77Q/K82Q = molecular target: T3, mutant PPIase K77Q/K82Q (Homo sapiens, UniProt Q13526, K77Q/K82Q); experiment: PIN1 peptidyl-prolyl isomerase assay (protease-coupled, Suc-AEPF-pNA); assay type: biochemical; details: 15° C., read-out: Km for this substrate
T3 construct: 6xHis (N, cleaved yes); made in house; host or cells: E. coli BL21(DE3)
Procedure: PIN1 is a phosphorylation dependent peptidyl-prolyl isomerase. […] Cleavage of the isomerized peptide releases para-nitroanaline, which can be monitored by an increase in absorbance at 390 nm. […] To minimize the spontaneous isomerization of the peptide substrate, reactions are performed at 15° C.
The rate constant k is linearly proportional to the concentration of active enzyme present in the assay mixture once the rate constant for the spontaneous isomerization is subtracted.

human PIN1 = human PIN1 (Homo sapiens, UniProt Q13526); details: Hennig et al., Biochemistry 37: 5953-5960 (1998); cited from earlier work
[2] = test system: Suc-AEPF-pNA peptide substrate; experiment: Peptidyl-prolyl isomerase activity of PIN1 polypeptides without inhibitor; assay type: biochemical; details: 0.033 nM enzyme, 100 μM Suc-AEPF-pNA
From the text: PIN1 is a phosphorylation dependent peptidyl-prolyl isomerase. Peptidyl-prolyl ismomerase activity for the peptides of the invention can be measured using a spectrophotometric assay based on the coupled chymotrypsin catalyzed, cis-trans conformation dependent cleavage of a para-nitroanaline-containing peptide substrate. This rotamase assay is described by Kofron et al. (Biochemistry 30, […] (1991)) and its application to PIN1 isomerase activity is described by Yaffe et al. (Science 278, 1957-1960 (1997)). Cleavage of the isomerized peptide releases para-nitroanaline, which can be monitored by an increase in absorbance at 390 nm. The PIN1 peptide substrate, succinyl-alanine-[…]-proline-phenylalanine-paranitroaniline (Suc-AEPF-pNA) (Bachem California, Inc., Torrence, Calif.) is kept in a predominantly cis conformation with an anhydrous TFE (trifluorethanol)/LiCl (lithium chloride) solvent mixture. […]
Peptidyl-prolyl isomerase reactions were carried out in 25 mM MOPS [3-(N-Morpholino)propanesufonic acid], pH 7.5, 0.5 mM TCEP [Tris(2-carboxyethyl)phosphine hydrochloride], 2% DMSO, 5 μl of a 25 mg/ml solution of Subtilisin Carlsberg Protease (Sigma), […], and 100 μM Suc-AEPF-pNA peptide substrate. […] The absorbance at 390 nm was monitored continuously until all substrate had been converted to the cleaved product. […]

[3] = ITC, 15.0° C., duplicate, ± standard deviation
[4] = best fit of corrected binding data, FIG. 6

enthalpy of binding [1, 3]: −7.3 (±0.1) kcal/mol | stoichiometry [1, 3]: 0.854 (±0.003) | C value [1, 4]: 142 | ka [1, 4]: 1.42e+07 M⁻¹
Compound: O=C(N[C@@H](COP(=O)(O)O)Cc1ccccc1)c1cc2ccccc2s1 [Compound I, Phosphoric acid mono-{(R)-2-[(1-benzo[b]thiophen-2-yl-methanoyl)-amino]-3-phenyl-propyl} ester]

IC50 (PPIase domain of PIN1): 7 to 10 µM
Compound: CC(C)C[C@H](NC(=O)[C@H](Cc1ccccc1)NC(=O)[C@@H]1CCCN1C(=O)[C@H](COP(=O)(O)O)NC(=O)[C@H](Cc1ccc(O)cc1)NC(=O)[C@H](Cc1ccccc1)NC(=O)[C@@H](N)Cc1c[nH]c2ccccc12)C(=O)N[C@@H](CCC(=O)O)C(=O)O [Pintide] (H-WFY[pS]PFLE-OH)

Km (mutant PPIase K77Q/K82Q): > 100 µM
Compound: C[C@H](NC(=O)CCC(=O)O)C(=O)N[C@@H](CCC(=O)O)C(=O)N1CCC[C@H]1C(=O)N[C@@H](Cc1ccccc1)C(=O)Nc1ccc([N+](=O)[O-])cc1 [Suc-AEPF-pNA] (Suc-AEPF-pNA)

Compound: O=C1C=CC(=O)c2c(O)cccc21 [juglone, 5-hydroxy-1,4-naphthoquinone]
inhibition of parvulins, including human PIN1 (human PIN1): selectively inhibits

rate [2]: 0.2
Compound: wild-type PIN1: wild type human PIN1, a phosphorylation dependent peptidyl-prolyl isomerase
